{
  "source": "patent US11780826B2",
  "about": "(Amgen Inc., priority 2017, dated 2023)",
  "data": [
    {"system": "Bovine cardiac myofibrils", "experiment": "In vitro model of dose-dependent myofibril ATPase modulation (AC1.4, pyruvate kinase/lactate dehydrogenase-coupled ATPase assay at pCa25)", "assay_type": "biochemical", "settings": "concentration at which ATPase activity was 1.4-fold higher than the bottom of the dose curve, mean of a minimum of two independent tests", "outline": "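Compound dilutions were premixed with myofibrils, coupling enzymes, EGTA and CaCl2, then the reaction was started with an equal volume carrying ATP (final 1 mM), NADH and PEP. ATP turnover was followed at 340 nm, and dose responses were fit to a four-parameter equation.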", "units": {"AC1.4": "µM"}, "values": [
      {"smiles": "Cc1cc(CNC(=O)[C@H]2CCCN2C(=O)[C@H]2CCCN(S(=O)(=O)N3CC(C#N)C3)C2)ccc1Cl", "note": "[Example 137, N-(4-chloro-3-methylbenzyl)-1-(((3S)-1-((3-cyano-1-azetidinyl)sulfonyl)-3-piperidinyl)carbonyl)-D-prolinamide]", "AC1.4": 0.2267},
      {"smiles": "O=C(N[C@@H](c1cc(F)c(Cl)cc1F)C1CC1)[C@H]1C[C@H]2C[C@H]2N1C(=O)c1cc(S(=O)(=O)C2CC2)ccn1", "note": "[Example 138, (1R,3R,5R)-N-((R)-(4-chloro-2,5-difluorophenyl)(cyclopropyl)methyl)-2-((4-(cyclopropylsulfonyl)-2-pyridinyl)carbonyl)-2-azabicyclo[3.1.0]hexane-3-carboxamide]", "AC1.4": 0.2306},
      {"smiles": "NS(=O)(=O)c1cccc(C(=O)N2[C@@H](C(=O)N[C@@H](c3cc(F)c(Cl)cc3F)C3CC3)C[C@H]3C[C@H]32)c1", "note": "[Example 139, (1R,3R,5R)-N-((R)-(4-chloro-2,5-difluorophenyl)(cyclopropyl)methyl)-2-(3-sulfamoylbenzoyl)-2-azabicyclo[3.1.0]hexane-3-carboxamide]", "AC1.4": 0.232},
      {"smiles": "Cc1cc(C(=O)N2[C@@H](C(=O)N[C@@H](c3cc(F)c(Cl)cc3F)C3COC3)C[C@H]3C[C@H]32)cc(S(C)(=O)=O)c1", "note": "[Example 140, (1R,3R,5R)-N-((R)-(4-chloro-2,5-difluorophenyl)(3-oxetanyl)methyl)-2-(3-methyl-5-(methylsulfonyl)benzoyl)-2-azabicyclo[3.1.0]hexane-3-carboxamide]", "AC1.4": 0.2351},
      {"smiles": "CS(=O)(=O)c1cccc(C(=O)N2C[C@@H](F)C[C@@H]2C(=O)N[C@@H](c2cc(F)c(Cl)cc2F)C2COC2)c1", "note": "[Example 141, (4S)-N-((R)-(4-chloro-2,5-difluorophenyl)(3-oxetanyl)methyl)-4-fluoro-1-(3-(methylsulfonyl)benzoyl)-D-prolinamide]", "AC1.4": 0.2366},
      {"smiles": "N#CC1CN(S(=O)(=O)c2cc(C(=O)N3CCC[C@@H]3C(=O)NCc3ccc(C(F)(F)F)cc3F)ccn2)C1", "note": "[Example 142, 1-((2-((3-cyano-1-azetidinyl)sulfonyl)-4-pyridinyl)carbonyl)-N-(2-fluoro-4-(trifluoromethyl)benzyl)-D-prolinamide]", "AC1.4": 0.2421},
      {"smiles": "N#CC1CN(S(=O)(=O)N2CCC(F)(F)[C@H](C(=O)N3CCC[C@@H]3C(=O)NCc3ccc(C(F)(F)F)cc3)C2)C1", "note": "[Example 143, 1-(((3S)-1-((3-cyano-1-azetidinyl)sulfonyl)-4,4-difluoro-3-piperidinyl)carbonyl)-N-(4-(trifluoromethyl)benzyl)-D-prolinamide]", "AC1.4": 0.244},
      {"smiles": "C[C@@H](NC(=O)[C@H]1CCCN1C(=O)[C@@H]1CN(S(=O)(=O)N2CC(C#N)C2)CCN1)c1ccc(C(F)(F)F)cc1F", "note": "[Example 144, 1-(((2S)-4-((3-cyano-1-azetidinyl)sulfonyl)-2-piperazinyl)carbonyl)-N-((1R)-1-(2-fluoro-4-(trifluoromethyl)phenyl)ethyl)-D-prolinamide]", "AC1.4": 0.2462},
      {"smiles": "Cc1c(CNC(=O)[C@H]2CCCN2C(=O)[C@H]2CCCN(S(=O)(=O)N3CC(C#N)C3)C2)cccc1C(F)(F)F", "note": "[Example 145, 1-(((3S)-1-((3-cyano-1-azetidinyl)sulfonyl)-3-piperidinyl)carbonyl)-N-(2-methyl-3-(trifluoromethyl)benzyl)-D-prolinamide]", "AC1.4": 0.2465},
      {"smiles": "CC[C@@H](NC(=O)[C@H]1CCCN1C(=O)c1cccc(S(=O)(=O)N(C)C)c1)c1ccc(C(F)(F)F)cc1F", "note": "[Example 146, 1-(3-(dimethylsulfamoyl)benzoyl)-N-((1R)-1-(2-fluoro-4-(trifluoromethyl)phenyl)propyl)-D-prolinamide]", "AC1.4": 0.2474},
      {"smiles": "CNc1ccc(S(C)(=O)=O)cc1C(=O)N1[C@@H](C(=O)N[C@@H](c2ccc(C(F)(F)F)cc2F)C2CC2)C[C@H]2C[C@H]21", "note": "[Example 148, (1R,3R,5R)-N-((R)-cyclopropyl(2-fluoro-4-(trifluoromethyl)phenyl)methyl)-2-(2-(methylamino)-5-(methylsulfonyl)benzoyl)-2-azabicyclo[3.1.0]hexane-3-carboxamide]", "AC1.4": 0.2569}
    ]}
  ]
}
